Source: patent publication US20030125265A1, “Anti-estrogen receptor agents for chemotherapy” (priority 2001, published 2003)
Where a SMILES comes first, the peptide text is derived from it. [ ]: non-standard residue; d: D form. The star is where a group is joined. Nva = CCC[C@H](N)C(=O)O; Cbz = O=C(OCc1ccccc1)*; OtBu = CC(C)(C)O*

What was measured:
MCF-7 cells [1] = assay: Thymidine incorporation, estrogen-induced DNA synthesis; type: cell-based; details: MCF-7, estrogen 10 nM, 20 hours; emodin 10 and 40 μM, tamoxifen 10 μM (FIG. 2A)
MCF-7 cells [2] = assay: Cell morphology and viability by trypan blue exclusion; type: cell-based; details: MCF-7, 4 hour treatment
Experimental: The effect on estrogen receptor was not a consequence of cytotoxicity, because MCF-7 cell morphology, as well as viability as assessed by trypan blue exclusion, were not affected after 4 hour treatment of emodin. The observed decrease in estrogen receptor protein level by emodin could be explained either by diminished protein synthesis or by enhanced protein degradation. To distinguish these two possibilities, a pulse-chase experiment was performed. The cells were labeled with [^35S] methionine for 1 hour and chased for 1 to 4 hours in the presence or absence of emodin. Pulse chase experiment was performed to determine the stability of the estrogen receptor proteins after treatment with emodin (see Example 1 for experimental details). In FIG. 4A, MCF-7 cells were treated with emodin at different time intervals. In FIG. 4B, MCF-7 cells were treated with DMSO at various time intervals. In FIG. 4C, proteins were quantitated by NIH Image software and plotted as the percentage of the value at the beginning of the chase.

estrogen receptor [3] = assay: Estrogen receptor protein level in T47D cells; type: cell-based; details: 40 μM emodin, different time intervals
[4] = molecular target: hsp90-estrogen receptor heteromeric complex (Homo sapiens, UniProt P03372); assay: Co-immunoprecipitation of hsp90 and estrogen receptor; type: cell-based
[5] = tested on: breast tumor development in MMTV-neu transgenic mice; assay: Chemoprevention of breast tumor development in MMTV-neu transgenic mice; type: in vivo; details: MMTV-proto-neu female mice, emodin 0.5 mg or 1.0 mg weekly i.p. from 15 weeks of age (FIG. 1A)
Experimental: (§1) The following example addresses whether a compound may be used as a chemoprevention agent. In a particular embodiment, emodin is tested for its use as a chemopreventive agent. Specifically, a MMTV-neu transgenic mouse model and a MMTV-v-Ha-ras transgenic mouse model were utilized to determine the effects of emodin on the development of breast tumor. In these models, the proto-neu oncogene and v-Ha-ras oncogene, respectively, were under the transcriptional control of the murine mammary tumor virus (MMTV) long terminal repeat (LTR). The transgenic mice develop multiple mammary tumors spontaneously. For FIG. 1A, MMTV-proto-neu female transgenic mice were randomly divided into three groups. […] Mice tumor development was monitored weekly. For FIG. 1B, MMTV-v-Ha-ras transgenic mice were administered emodin (n=7) (1 mg/0.2 mL) or DMSO solvent control (n=8) through i.p. injection everyday from six weeks of age.

estrogen receptor [6] = assay: Estrogen receptor protein level by immunoblotting in MCF-7 cells
estrogen receptor [7] = assay: Estrogen receptor protein level by immunoblotting in ZR 75-1 cells; type: cell-based; details: ZR 75-1, 40 μM emodin, different time intervals (FIG. 3D)
Experimental: In a specific embodiment, emodin was tested for downregulation of estrogen receptor. […] Estrogen receptor protein levels in MCF-7 cells were measured by immunoblotting with monoclonal antibody D75. The same membrane was stripped and reprobed with anti-β-actin antibody to show the protein loading. […] The proteins were quantitated by NIH Image software and plotted as the percentage control (without emodin) and normalized with actin in FIG. 3B. […] ZR75-1 estrogen receptor positive breast cancer cell lines were treated with emodin (40 μM) for different time points. Immunoblot analysis for estrogen receptor were performed.

estrogen receptor [8] = assay: Effect of protease inhibitors on emodin-induced estrogen receptor depletion, western blot; type: cell-based; details: for estrogen receptor protein level with emodin plus protease inhibitor: MCF-7, 40 μM emodin simultaneously, chloroquine 100 μM, EGTA 5 mM, MG115 25 μM, PSI 25 mM (FIG. 6)
[9] = tested on: breast tumor development in MMTV-v-Ha-ras transgenic mice; assay: Chemoprevention of breast tumor development in MMTV-v-Ha-ras transgenic mice; type: in vivo; details: emodin 1 mg/0.2 mL i.p. everyday from six weeks of age (FIG. 1B)
Experimental: as §1

[10] = tested on: Rb phosphorylation in MCF-7 cells; assay: Western blotting of Rb phosphorylation status; type: cell-based; details: MCF-7, in the presence of estrogen (FIG. 2B)
estrogen receptor [11] = assay: Pulse-chase stability of estrogen receptor protein; type: cell-based; details: MCF-7, 40 μM emodin, chase 1 to 4 hours (FIG. 4)
Experimental: Metabolic labeling of protein, immunoprecipitation and gel electrophoresis—MCF-7 cells were incubated for 1 h at 37° C. in methionine-free medium containing 5% dialyzed, heat-inactivated FCS, with or without emodin (40 μM). [^35S] methionine was added to yield 100 μCi/ml in the medium. Incubation was continued for an additional hour. Cells were then rinsed twice with warm, complete medium and were incubated in complete medium with or without emodin (40 μM) at various intervals. Labeled cells were lysed in RIPA-B lysis buffer. Anti-estrogen receptor antibody (D75) immunoprecipitation was performed from 500 μg total cellular protein overnight at 4° C. 20 μg of rabbit anti-rat antibody was added to the mixture and incubated for 45 minutes at 4° C. Protein A-agarose was added and incubated for 45 minutes at 4° C. The mixture was washed three times with cold PBS. […] The intensity of the proteins was quantitated by NIH Image. Results were calculated as the percentage of the controls measured at the start of the chase period.
The effect on estrogen receptor was not a consequence of cytotoxicity, because MCF-7 cell morphology, as well as viability as assessed by trypan blue exclusion, were not affected after 4 hour treatment of emodin. […] In FIG. 4C, proteins were quantitated by NIH Image software and plotted as the percentage of the value at the beginning of the chase.

estrogen receptor [12] = molecular target: T1, estrogen receptor (Homo sapiens, UniProt P03372); assay: Estrogen-induced estrogen receptor degradation with proteasome inhibitor, western blot; type: cell-based; details: MCF-7, 10 nM estradiol, 24 hours (FIG. 5)
T1 construct: MCF-7, T47D, and ZR-75-1, which are estrogen receptor positive cell lines, were used; endogenous in cells; host or cells: MCF-7
T1 sequence (P03372 1-595): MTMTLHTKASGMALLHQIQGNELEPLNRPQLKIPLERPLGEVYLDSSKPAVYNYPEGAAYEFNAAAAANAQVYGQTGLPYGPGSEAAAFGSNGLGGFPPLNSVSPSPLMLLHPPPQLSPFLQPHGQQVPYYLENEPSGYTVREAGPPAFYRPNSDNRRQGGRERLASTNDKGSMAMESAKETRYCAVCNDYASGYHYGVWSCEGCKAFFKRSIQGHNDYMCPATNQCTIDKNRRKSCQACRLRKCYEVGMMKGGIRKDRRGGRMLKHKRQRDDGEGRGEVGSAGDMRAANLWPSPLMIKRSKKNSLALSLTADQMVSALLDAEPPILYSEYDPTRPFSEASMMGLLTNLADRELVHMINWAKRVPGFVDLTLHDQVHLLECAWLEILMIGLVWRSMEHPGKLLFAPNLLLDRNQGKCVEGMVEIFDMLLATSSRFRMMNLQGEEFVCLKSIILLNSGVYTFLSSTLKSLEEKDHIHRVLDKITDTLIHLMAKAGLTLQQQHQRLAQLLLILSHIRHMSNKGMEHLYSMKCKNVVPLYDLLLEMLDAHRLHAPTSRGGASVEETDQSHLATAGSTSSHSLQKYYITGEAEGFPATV
Experimental: For the control, ethanol and DMSO were added. The protein was extracted and quantified by western blot analysis to detect estrogen receptor and actin (for protein loading).

## CC/C(=C(\c1ccccc1)c1ccc(OCCN(C)C)cc1)c1ccccc1 [tamoxifen, reference compound]
MCF-7 cells [1]
  estrogen stimulated DNA synthesis (thymidine incorporation): inhibit

## Cc1cc(O)c2c(c1)C(=O)c1cc(O)cc(O)c1C2=O [emodin]
MCF-7 cells [2]
  cell morphology and viability (trypan blue exclusion): not affected
Estrogen receptor [3]
  depletion of estrogen receptor polypeptide: enhance the depletion
[4]; MCF-7, 40 μM emodin (FIG. 7A)
  amount of hsp90-bound estrogen receptor: markedly increased
[4]; MCF-7, 40 μM emodin (FIG. 7B)
  cellular levels of hsp90: remained unchanged
[5]
  mammary tumor development: chemopreventive activity
Estrogen receptor [6]; MCF-7, 40 μM emodin, two hours, normalized with actin (FIG. 3B)
  estrogen receptor protein level, percentage of control: […]
Estrogen receptor [6]; read-out: dose required for repressing 50% of estrogen receptor (IC50), MCF-7, 4 hours
  IC50: […]
Estrogen receptor [7]
  depletion of estrogen receptor polypeptide: enhance the depletion
Estrogen receptor [8]; MCF-7, 40 μM emodin alone (FIG. 6)
  estrogen receptor protein level: decreased rapidly
[9]
  mammary tumor development: chemopreventive activity
[10]
  Rb phosphorylation status: remained underphosphorylated
MCF-7 cells [1]
  estrogen stimulated DNA synthesis (thymidine incorporation): […]
Estrogen receptor [11]
  turnover of newly synthesized estrogen receptor: strikingly enhanced

## 4-hydroxytamoxifen [4-hydroxy-tamoxifen, reference compound]
[10]
  Rb phosphorylation status: remained underphosphorylated

## CCC[C@@H](C=O)NC(=O)[C@H](CC(C)C)NC(=O)[C@H](CC(C)C)NC(=O)OCc1ccccc1 [MG115, carbobenzoxyl-leucinyl-leucinyl-norvalinal-II] (Cbz-Leu-Leu-[Nva]-aldehyde)
Estrogen receptor [12]
  estrogen receptor level after estrogen stimulation with proteasome inhibitor: protected from degradation
Estrogen receptor [8]
  estrogen receptor protein level with emodin plus protease inhibitor: striking suppression

## CC[C@H](C)[C@H](NC(=O)OCc1ccccc1)C(=O)N[C@@H](CCC(=O)OC(C)(C)C)C(=O)N[C@@H](C)C(=O)N[C@H](C=O)CC(C)C [PS1, N-Benzyloxycarbonyl-Ile-Glu(O-t-butyl)-Ala-leucinal] (Cbz-IE(OtBu)AL-aldehyde)
Estrogen receptor [8]
  estrogen receptor protein level with emodin plus protease inhibitor: striking suppression

## COc1ccc(/C=C(\C#N)c2cccnc2)cc1OC [RG13022, reference compound]
Estrogen receptor [6]; MCF-7, 18 hours, genistein 100 μM, RG13022 5 μM (FIG. 3C)
  estrogen receptor polypeptide level: significantly reduced
